According to patent publication US8501734B2, “Medical intervention in haematological cancers” (Oncotyrol-Center for Personalized Cancer Medicine GmbH …, priority 2008, dated 2013):
pIC50: −log10 of the molar value. Where a name gives a salt, the structure may show the parent alone.

Experiments:
OPM2 cells = experiment: Annexin V/PI apoptosis assay (FACS), OPM2 cells; type: cell-based; parameters: apoptosis induction: unit not given here; settings: OPM2 cells; for apoptosis induction, combination: Akt inhibitor + Imiquimod 20 μg/ml; for apoptosis induction, single agent: Imiquimod 20 μg/ml or Akt inhibitor alone
Description: (§1) After treatment adherent cells were trypsinized (as described before), and resuspended in corresponding full medium. Suspension cells or trypsinized adherent cells, supernatant and washing solution (1×PBS from washing before trypsinization) were pooled and then spun down (300 g for 3 min) washed in 2 ml and resuspended in 1000 of annexin V binding buffer and mixed with 2 μg/ml annexin V-Allophycocyanin (APC) (BD-Pharmingen, San Diego, Calif., USA) and 50 ng/ml of propidium iodide (PI; Sigma Aldrich). At least 10.000 cells were measured per sample using a Becton Dickinson FACSCalibur flow Cytometer (San Jose, Calif., USA). Percentage of Annexin V negative and PI negative cells were depicted in the figures. For the analysis of the pro-apoptotic activity of Imiquimod® in primary MM cells and non-malignant BMMCs, 5×10^5 cells BMMCs cells were treated with or without 40 μg/ml Imiquimod® for the indicated time periods. Cells were then harvested and washed twice with PBS. Detection of apoptotic cells was performed using the annexin V/PI assay according to manufacturers' instruction. Briefly, BMMCs were stained with a mixture of annexin V/FITC (Alexis Coorp., Laeufelfingen, Switzerland), propidium iodide (Sigma), anti-CD38-PE and anti-CD45-PC5 for 15 min at room temperature and immediately analyzed by flow cytometry. The percentages of viable cells (i.e. cells negative for annexin V/FITC and PI) within the MM (CD38^posCD45^low/absent) and non-MM fraction (CD38^neg/CD45^pos) were determined by flow cytometry.
Cells were cultured as described before and, treated with 40 μg/ml Imiquimod® or Gardiquimod® for 24 h, and apoptosis was assayed by AnnexinV/PI staining and FACS analysis.
(§2) Adherent cells were grown in 24-well plates to confluence and treated with 40 μg/ml Imiquimod® for 24 h. Cells were then trypsinized, suspended in full medium, stained for AnnexinV/PI and apoptosis was measured as described before. Suspension cells (250.000) were treated with 40 μg/ml Imiquimod® for 24 h, stained for Annexin/PI and apoptosis was measured as described above (Annexin V/Propidium Iodide apoptosis Assay).
(§3) OPM-2 and U266 cells (2.5×10^5 in 500 μl) were treated with either Imiquimod® alone (10 μg/500 μl), various inhibitors/drugs alone or with the combination of Imiquimod® and inhibitors for 24 or 48 h. In the controls the solvent of the drug has been added in appropriate amounts. Cells were then AnnexinV/PI stained and apoptosis measured as described before.

[1] = cited from earlier work
Akt phosphorylation = Akt phosphorylation by Western blot with phospho-Akt antibody in OPM2 cells; type: cell-based
Description: Cells were lysed in lysis-IP-Buffer supplemented with protease inhibitors and sodium orthovanadate. 10 μg of lysate were separated by SDS-PAGE (10% polyacrylamide) and transferred to methanol activated Hypond-P PVDF-membranes (Amersham, Freiburg, Germany) by semi-dry blotting. Membranes were blocked in a 3% bovine serum albumin solution or 5% non fat dry milk solution in phosphate buffered saline (PBS) with 0.1% Tween 20 (PBT). Primary antibodies were applied in blocking solution for 1 h at room temperature or over night at 4° C. Membranes were washed in PBT and incubated with corresponding secondary antibodies in 5% non fat dry milk in PBT for 1 h at room temperature. Cells were washed with PBT, incubated with ECL solution and exposed in a Fluorchem 5500 (Biozym, Oldendorf, Germany).
The efficiency of the inhibition of Akt phosphorylation was monitored by Western blotting with antibodies against phospho-Akt. Antibody for actin served as a loading control (FIG. 7B).

[2] = test system: Raji, Daudi, Ramos, Jurkat, C7H2 cell lines; experiment: Annexin V/PI apoptosis assay, non-multiple myeloma suspension cell lines; type: cell-based; settings: Raji, Ramos, Jurkat, 24 h
Description: as §1, §2

[3] = test system: PH domain-lacking Akts, PKA, PKC, and SGK; settings: concentrations as high as 50 μM; cited from earlier work
[4] = test system: multiple myeloma cell lines; experiment: Annexin V/PI apoptosis assay, multiple myeloma cell line panel; type: cell-based; settings: OPM2, LP-1, RPMI, U266, 24 h
Description: as §1, §2

[5] = test system: peripheral blood mononuclear cells (PBMCs); experiment: Annexin V/PI apoptosis assay, PBMCs from healthy donors; type: cell-based, human; settings: PBMCs from healthy donors, 48 h, 5 μM Akti1/2 + 20 μg/ml Imiquimod
Description: PBMCs were prepared using separation via Ficoll density gradient centrifugation (Biochrom AG, Berlin, Germany) according to the protocol of the manufacturer.
as §1, §2

[6] = test system: Rh (rhabdomyosarcoma) cell lines; settings: read-out: IC50 growth suppression; cited from earlier work
Akt = settings: cited from earlier work
PI 3-K, PDK1, or SGK1 = settings: cited from earlier work
U266 cells = experiment: Annexin V/PI apoptosis assay (FACS), U266 cells; type: cell-based; parameters: apoptosis induction: unit not given here; note: key: 0 for no; + for low; ++: + indicates the range of apoptosis induction; +++: + indicates the range of apoptosis induction; ++++ for very strong apoptosis induction
Description: as §1, §2, §3

Flk-1 = settings: cited from earlier work
[7] = in vivo; cited from earlier work
[8] = 24 h, Imi 20 μg/ml + drug 10 μM
[9] = 24 h, Imi 20 μg/ml + drug 50 μM
[10] = 48 h, Imi 20 μg/ml + drug 10 μM
[11] = 48 h, Imi 20 μg/ml + drug 50 μM
[12] = 24 h, Imi 20 μg/ml + drug 20 μM
[13] = 48 h, Imi 20 μg/ml + drug 20 μM

Compound | apoptosis induction, combination (OPM2 cells; 24 h) | apoptosis induction, single agent (OPM2 cells; 24 h) | solubility [1] | phosphorylation of Akt (Akt phosphorylation) | apoptosis induction (OPM2 cells; [8]) | apoptosis induction (OPM2 cells; [9]) | apoptosis induction (OPM2 cells; 24 h, drug alone 10 μM) | apoptosis induction (OPM2 cells; 24 h, drug alone 50 μM) | apoptosis induction (OPM2 cells; [10]) | apoptosis induction (OPM2 cells; [11]) | apoptosis induction (OPM2 cells; 48 h, drug alone 10 μM) | apoptosis induction (OPM2 cells; 48 h, drug alone 50 μM) | apoptosis induction (U266 cells; [8]) | apoptosis induction (U266 cells; [9]) | apoptosis induction (U266 cells; 24 h, drug alone 10 μM) | apoptosis induction (U266 cells; 24 h, drug alone 50 μM) | apoptosis induction (U266 cells; [10]) | apoptosis induction (U266 cells; [11]) | apoptosis induction (U266 cells; 48 h, drug alone 10 μM) | apoptosis induction (U266 cells; 48 h, drug alone 50 μM) | also measured
O=c1[nH]c2ccccc2n1C1CCN(Cc2ccc(-c3nc4cc5nc[nH]c5cc4nc3-c3ccccc3)cc2)CC1 [Akti1/2, 1,3-Dihydro-1-(1-((4-(6-phenyl-1H-imidazo[4,5-g]quinoxalin-7-yl)phenyl)methyl)-4-piperidinyl)-2H-benzimidazol-2-one] | nearly all cells died | some apoptosis | soluble in DMSO | inhibited the phosphorylation of Akt | – | – | – | – | – | – | – | – | – | – | – | – | – | – | – | – | apoptosis induction, combination ([2]; Daudi, C7H2, 5 μM Akti1/2 + 20 μg/ml Imiquimod): affected all cell lines to some extent; apoptosis induction ([2]; C7H2 (exception Daudi), 5 μM alone): only a mild effect; inhibitory effect [3]: does not exhibit any inhibitory effect; apoptosis induction, combination ([4]; Akti1/2 5 or 10 μM + Imiquimod 20 μg/ml): super-additive effect; apoptosis induction, single agent ([4]; Imiquimod 20 μg/ml or Akti1/2 5 or 10 μM alone): some apoptosis; sensitivity of PBMCs (general toxicity of the combination) [5]: as sensitive as U266 cells
CCN(CC)CCCCN1c2ccccc2Oc2ccc(Cl)cc21 [AktX, 10-(4′-(N-diethylamino)butyl)-2-chlorophenoxazine, HCl] | nearly all cells died | some apoptosis | soluble in H2O | inhibited the phosphorylation of Akt | – | – | – | – | – | – | – | – | – | – | – | – | – | – | – | – | pIC50 [6]: 5.30 to 5.70; complete inhibition of Akt phosphorylation and in vitro kinase activity (Akt): < 5 µM; effect on PI 3-K, PDK1, or SGK1 (PI 3-K, PDK1, or SGK1): minimal effect
CC(C)c1cc(/C=C(\C#N)C(=O)NCCCc2ccccc2)cc(C(C)C)c1O [SU1498] | – | – | – | – | ++ | ++ | + | + | +++ | +++ | + | ++ | ++ | ++ | + | + | ++ | ++ | ++ | ++ | apoptosis induction (OPM2 cells; 24 h, Imi 20 μg/ml + drug 1 μM): +; apoptosis induction (OPM2 cells; 24 h, drug alone 1 μM): 0; apoptosis induction (OPM2 cells; 48 h, Imi 20 μg/ml + drug 1 μM): ++; apoptosis induction (OPM2 cells; 48 h, drug alone 1 μM): 0; apoptosis induction (U266 cells; 24 h, Imi 20 μg/ml + drug 1 μM): +; apoptosis induction (U266 cells; 24 h, drug alone 1 μM): 0; apoptosis induction (U266 cells; 48 h, Imi 20 μg/ml + drug 1 μM): ++; apoptosis induction (U266 cells; 48 h, drug alone 1 μM): 0; pIC50 (Flk-1): 6.15
CCn1c(-c2nonc2N)nc2c(C#CC(C)(C)O)ncc(OC[C@H]3CCCNC3)c21 [GSK690693] | – | – | – | – | – | – | – | – | – | – | – | – | – | – | – | – | – | – | – | – | reason for withdrawal and termination of clinical phase I studies [7]: hyperglycaemia
N[C@@H](Cc1ccc(N(CCCl)CCCl)cc1)C(=O)O [Melphalan] | – | – | – | – | + | ++ | + | ++ | ++ | ++++ | + | +++ | + | +++ | + | ++ | ++ | +++ | + | +++ | apoptosis induction (OPM2 cells; [12]): ++; apoptosis induction (OPM2 cells; 24 h, drug alone 20 μM): +; apoptosis induction (OPM2 cells; [13]): ++++; apoptosis induction (OPM2 cells; 48 h, drug 20 μM and 50 μM + Imiquimod 20 μg/ml): nearly complete apoptosis induction in all cells; apoptosis induction (OPM2 cells; 48 h, drug alone 20 μM): ++; apoptosis induction (U266 cells; [12]): ++; apoptosis induction (U266 cells; 24 h, drug alone 20 μM): +; apoptosis induction (U266 cells; [13]): ++; apoptosis induction (U266 cells; 48 h, drug alone 20 μM): +
